Measured values as given in patent publication US9045491B2, “Thienyl [3,2-D] pyrimidin-4-one compounds, preparation method, pharmaceutical compositions and use thereof” (SHANGHAI INSTITUTE OF MATERIA MEDICA, CHINESE ACADEMY OF …, priority 2011, dated 2015).
Several values for one entry are separate records, joined by “and”; a condition that tells them apart may be missing. Identical values can stand only once. Entries after “also recorded” stand apart in the source; their conditions may differ.

Key:
DPP IV = molecular target: T1, DPP IV (Mus musculus, UniProt P28843); experiment: DPP IV inhibitory activity in vivo: DPP IV activity in plasma of ICR mouse after single oral dose; settings: oral 3 mg/kg, compared with Alogliptin and Vildagliptin (LAF237), FIG. 1-6
T1 construct: from tissue; host or cells: plasma of ICR mouse
T1 sequence (P28843 37-760 limits assumed): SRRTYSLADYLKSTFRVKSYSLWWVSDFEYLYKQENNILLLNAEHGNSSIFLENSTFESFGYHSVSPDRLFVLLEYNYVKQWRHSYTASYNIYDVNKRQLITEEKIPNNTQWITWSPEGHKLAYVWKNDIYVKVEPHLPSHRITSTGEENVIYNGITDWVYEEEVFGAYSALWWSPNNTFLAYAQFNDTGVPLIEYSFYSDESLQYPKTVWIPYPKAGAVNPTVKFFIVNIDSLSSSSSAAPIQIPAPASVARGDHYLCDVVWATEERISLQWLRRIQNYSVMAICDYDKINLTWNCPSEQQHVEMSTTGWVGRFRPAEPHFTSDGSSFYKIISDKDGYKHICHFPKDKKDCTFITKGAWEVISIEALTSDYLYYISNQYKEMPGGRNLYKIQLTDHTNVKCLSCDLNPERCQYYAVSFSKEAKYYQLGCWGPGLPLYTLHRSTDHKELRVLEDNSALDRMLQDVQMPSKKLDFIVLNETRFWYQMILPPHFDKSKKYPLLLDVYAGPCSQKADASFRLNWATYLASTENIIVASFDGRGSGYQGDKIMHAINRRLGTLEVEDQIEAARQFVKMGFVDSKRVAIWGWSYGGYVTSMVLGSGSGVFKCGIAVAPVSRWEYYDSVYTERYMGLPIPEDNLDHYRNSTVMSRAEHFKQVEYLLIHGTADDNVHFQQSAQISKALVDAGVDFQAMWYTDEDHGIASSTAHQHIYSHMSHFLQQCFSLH
Description: Animals: ICR mouse (8-10 weeks old; sex: male; 25 g-30 g of body weight, purchased from Shanghai SLAC Laboratory Animal Center).
Meanwhile the solvent group was used as blank control. The blood was taken from orbital venous plexus of the mouse before administration, and 30, 60, 2 h, 4 h, 6 h, 8 h and […] after administration, respectively and loaded into Eppendorf tube (Qizhong Industrial (Shanghai) co., Ltd.) treated by anticoagulant. The plasma was obtained by centrifugation and DPP IV activity was determined.

[1] = Pharmacokinetics of DC291407 and metabolites in rats (LC-MS/MS); type: in vivo, Sprague-Dawley (SD) rats
Description: The concentration of metabolite M1 (4071001), metabolite M2 (407002) or metabolite M3 (407003) in plasma was determined by LC-MS/MS method after DC291407 was administrated to the rats through gavage and intravenous injection.
The LC/MS/MS used is triple quadruple LC/MS 6460 from Agilent.
Six healthy male Sprague-Dawley (SD) rats with the weight of 180-220 g were randomly divided into 2 groups. The rats in each group were administrated with the tested compound by gavage or intravenous injection, respectively.
The compound was dissolved in 6.7% DMSO/6.7% Tween/86.6% normal saline.
The rats fasted for 12 h and can drink water ad libitum. 2 h after dosing, the rats were provided with food all together. The time point for collecting blood samples and the sample processing are listed as follows.
Intragastric administration: 0.25, 0.5, 1.0, 2.0, 3.0, 4.0, 6.0, 8.0 and 24 h after administration;
Intravenous administration: 5 min, 0.25, 0.5, 1.0, 2.0, 4.0, 6.0, 8.0 and 24 h after administration. At above time point, 0.3 ml venous blood was taken from retrobulbar venous plexus of the rat and loaded into heparinization tube. After centrifuged at 11000 rpm for 5 min, the plasma was separated and frozen at −20° C. in a refrigerator.

[2] = gavage 20 mg/kg DC291407, average of 3 animals
[3] = gavage 20 mg/kg DC291407, individual animals, 20 mg/kg
[4] = gavage 20 mg/kg DC291407, time 0 h, individual animals, BLQ = below lower quantification
[5] = gavage 20 mg/kg DC291407, time 0.25 h, individual animals, 20 mg/kg
[6] = gavage 20 mg/kg DC291407, time 0.5 h, individual animals, 20 mg/kg
[7] = intravenous injection 10 mg/kg DC291407, average of 3 animals

Compound: COC(=O)c1cc2nc(N3CCCC(N)C3)n(Cc3ccccc3C#N)c(=O)c2s1 (stereo not drawn) [DC291407]
- DPP IV activity of ICR mouse plasma after single dose (given as hypoglycemic ability in vivo) (DPP IV): comparable to that of Alogliptin (3 mg), and better than that of Vildagliptin (LAF237, 15 mg)
- concentration of M2 in plasma samples collected within one hour after administration ([1]; gavage 20 mg/kg DC291407): below 20 ng/ml
- metabolite M3 in plasma ([1]; gavage 20 mg/kg DC291407): can not be detected
- prototype compound in plasma ([1]; gavage 20 mg/kg DC291407): can not be detected
- main component in plasma ([1]; gavage 20 mg/kg DC291407, 20 mg/kg): mainly contained hydrolysis-metabolite M1; also recorded: mainly contained hydrolysis-metabolite Ml
- AUC0-t of metabolite M1 [1, 2]: 9860 ng·h/mL
- AUC0-∞ of metabolite M1 [1, 2]: 9968 ng·h/mL
- Cmax of metabolite M1 [1, 2]: 6039 ng/mL
- MRT of metabolite M1 [1, 2]: 2.58 h
- Tmax of metabolite M1 [1, 2]: 0.33 h
- t1/2 of metabolite M1 [1, 2]: 5.63 h
- F, absolute bioavailability ([1]; gavage 20 mg/kg DC291407, dose-normalized, based on AUC of metabolite M1): 22.1%
- AUC0-t of metabolite M1 [1, 3]: 8191 ng·h/mL and 5758 ng·h/mL and 15633 ng·h/mL
- AUC0-∞ of metabolite M1 [1, 3]: 8292 ng·h/mL and 5907 ng·h/mL and 15706 ng·h/mL
- Cmax of metabolite M1 [1, 3]: 4435 ng/mL and 3427 ng/mL and 10255 ng/mL
- MRT of metabolite M1 [1, 3]: 2.86 h and 3.15 h and 1.74 h
- Tmax of metabolite M1 [1, 3]: 0.50 h and 0.25 h
- t1/2 of metabolite M1 [1, 3]: 5.37 h and 7.97 h and 3.55 h
- Plasma concentration of metabolite M1 [1, 4]: BLQ
- Plasma concentration of metabolite M2 [1, 4]: BLQ
- Plasma concentration of metabolite M1 ([1]; gavage 20 mg/kg DC291407, time 0.25 h, average of 3 animals): 5712 ng/mL
- Plasma concentration of metabolite M1 [1, 5]: 3454 ng/mL and 3427 ng/mL and 10255 ng/mL
- Plasma concentration of metabolite M2 [1, 5]: 3.87 ng/mL and 3.24 ng/mL and 16.3 ng/mL
- Plasma concentration of metabolite M1 ([1]; gavage 20 mg/kg DC291407, time 0.5 h, average of 3 animals): 5975 ng/mL
- Plasma concentration of metabolite M1 [1, 6]: 4435 ng/mL and 3404 ng/mL and 10087 ng/mL
- Plasma concentration of metabolite M2 [1, 6]: 4.79 ng/mL and 3.94 ng/mL and 16.9 ng/mL
- Plasma concentration of metabolite M1 ([1]; gavage 20 mg/kg DC291407, time 1.0 h, average of 3 animals): 3962 ng/mL
- Plasma concentration of metabolite M1 ([1]; gavage 20 mg/kg DC291407, time 1.0 h, individual animals, 20 mg/kg): 3326 ng/mL and 1771 ng/mL and 6789 ng/mL
- Plasma concentration of metabolite M2 ([1]; gavage 20 mg/kg DC291407, time 1.0 h, individual animals, BLQ = below lower quantification, 20 mg/kg): 3.88 ng/mL and BLQ and 10.7 ng/mL
- Plasma concentration of metabolite M1 ([1]; gavage 20 mg/kg DC291407, time 2.0 h, average of 3 animals): 1117 ng/mL
- Plasma concentration of metabolite M1 ([1]; gavage 20 mg/kg DC291407, time 2.0 h, individual animals, 20 mg/kg): 690 ng/mL and 1091 ng/mL and 1569 ng/mL
- Plasma concentration of metabolite M2 ([1]; gavage 20 mg/kg DC291407, time 2.0 h, individual animals, BLQ = below lower quantification): BLQ
- Plasma concentration of metabolite M1 ([1]; gavage 20 mg/kg DC291407, time 3.0 h, average of 3 animals): 549 ng/mL
- Plasma concentration of metabolite M1 ([1]; gavage 20 mg/kg DC291407, time 3.0 h, individual animals, 20 mg/kg): 476 ng/mL and 299 ng/mL and 872 ng/mL
- Plasma concentration of metabolite M2 ([1]; gavage 20 mg/kg DC291407, time 3.0 h, individual animals, BLQ = below lower quantification): BLQ
- Plasma concentration of metabolite M1 ([1]; gavage 20 mg/kg DC291407, time 4.0 h, average of 3 animals): 390 ng/mL
- Plasma concentration of metabolite M1 ([1]; gavage 20 mg/kg DC291407, time 4.0 h, individual animals, 20 mg/kg): 500 ng/mL and 105 ng/mL and 565 ng/mL
- Plasma concentration of metabolite M2 ([1]; gavage 20 mg/kg DC291407, time 4.0 h, individual animals, BLQ = below lower quantification): BLQ
- Plasma concentration of metabolite M1 ([1]; gavage 20 mg/kg DC291407, time 6.0 h, average of 3 animals): 123 ng/mL
- Plasma concentration of metabolite M1 ([1]; gavage 20 mg/kg DC291407, time 6.0 h, individual animals, 20 mg/kg): 138 ng/mL and 57.3 ng/mL and 173 ng/mL
- Plasma concentration of metabolite M2 ([1]; gavage 20 mg/kg DC291407, time 6.0 h, individual animals, BLQ = below lower quantification): BLQ
- Plasma concentration of metabolite M1 ([1]; gavage 20 mg/kg DC291407, time 8.0 h, average of 3 animals): 68.5 ng/mL
- Plasma concentration of metabolite M1 ([1]; gavage 20 mg/kg DC291407, time 8.0 h, individual animals, 20 mg/kg): 97.1 ng/mL and 58.9 ng/mL and 49.5 ng/mL
- Plasma concentration of metabolite M2 ([1]; gavage 20 mg/kg DC291407, time 8.0 h, individual animals, BLQ = below lower quantification): BLQ
- Plasma concentration of metabolite M1 ([1]; gavage 20 mg/kg DC291407, time 24 h, average of 3 animals): 13.4 ng/mL
- Plasma concentration of metabolite M1 ([1]; gavage 20 mg/kg DC291407, time 24 h, individual animals, 20 mg/kg): 13.0 ng/mL (2×) and 14.3 ng/mL
- Plasma concentration of metabolite M2 ([1]; gavage 20 mg/kg DC291407, time 24 h, individual animals, BLQ = below lower quantification): BLQ
- main component in plasma ([1]; intravenous 10 mg/kg DC291407): mainly contained hydrolysis-metabolite M1
- metabolite M2 in plasma ([1]; intravenous 10 mg/kg DC291407): relatively low concentration
- prototype compound in plasma ([1]; intravenous 10 mg/kg DC291407): relatively low concentration
- metabolite M3 in plasma ([1]; intravenous 10 mg/kg DC291407, 10 mg/kg): can not be detected; also recorded: no metabolite M3 can be detected
- AUC0-t of metabolite M1 [1, 7]: 22274 ng·h/mL
- AUC0-t of prototype drug [1, 7]: 36.0 ng·h/mL
- AUC0-∞ of metabolite M1 [1, 7]: 22517 ng·h/mL
- AUC0-∞ of prototype drug [1, 7]: 39.9 ng·h/mL
- CL of prototype drug [1, 7]: 260 L/h/kg
- Cmax of metabolite M1 [1, 7]: 45028 ng/mL
- MRT of metabolite M1 [1, 7]: 1.13 h
- MRT of prototype drug [1, 7]: 0.78 h
- Tmax of metabolite M1 [1, 7]: 0.083 h
